Experimental data taken from PMC6778101 (Nature Communications, 2019).
Entries after “also recorded” stand apart in the source; their conditions may differ. Ends that are not written are not given here. Peptide text beside a SMILES is read from it.

Tests used:
[1] = test system: 38 AMP-adapted E. coli K-12 BW25113 lines; assay: Cross-resistance of AMP-resistant lines (relative MIC); format: cell-based, Escherichia coli; settings: for Relative MIC (MICevolved / MICcontrol): >1 cross-resistance, <1 collateral sensitivity
Source text: Next, we have explored whether laboratory evolved AMP resistance provide any cross-resistance to AMPs which appear to be less prone to resistance. […] We have measured the changes in susceptibilities of these strains to the AMPs (PLEU, PGLA, R8, IND, TPII, and CP1) towards which resistance evolution was limited, as well as to the human peptide LL37. LL37 is a cathelicidin-derived AMP present throughout the human body with critical defensive roles. Cross-resistance was defined as a minimum of twofold increase in resistance level.
(§1) MICs were determined using a standard serial broth dilution technique. Briefly, 11-step serial dilutions were prepared in 96-well microtiter plates with three replicates per strain and antimicrobial compound. Each experiment was repeated at least twice. 5 × 10^5 cells/mL were inoculated into each well, and the plates were incubated at 30 °C in case of E. coli K-12 BW25113, and its antibiotic and AMP-adapted lines, or 37 °C in case of the other bacterial species. Plates were shaken at 300 r.p.m. during incubation for 24 and 18 h, respectively. Cell growth was monitored by measuring the optical density (OD600 value, Biotek Synergy 2 microplate reader was used for this purpose). […] Relative MIC was calculated as follows: MICrelative = MICevolved/MICcontrol.

[2] = test system: E. coli ATCC 25922; format: cell-based, Escherichia coli; settings: Escherichia coli ATCC 25922; broth dilution, 37 °C, 18 h
Protocol: Unless otherwise indicated, we used E. coli K-12 BW25113 in all high-throughput experiments. To investigate the impact of mutation rate on evolution of AMP resistance, we initiated laboratory evolution with a mutator strain E. coli mutD5 that carries mutations in the dnaQ gene (L73W and A164V).
as §1

CC[C@H](C)[C@@H]1NC(=O)CNC(=O)[C@H](CCCNC(=N)N)NC(=O)[C@H](Cc2ccc(O)cc2)NC(=O)[C@@H]2CSSC[C@H](NC1=O)C(=O)N[C@@H](Cc1ccc(O)cc1)C(=O)N[C@@H](CCCNC(=N)N)C(=O)N[C@@H](CCCCN)C(=O)N[C@H](C(=O)N[C@@H](CCCNC(=N)N)C(N)=O)CSSC[C@H](NC(=O)[C@H](Cc1c[nH]c3ccccc13)NC(=O)[C@@H](N)CCCNC(=N)N)C(=O)N[C@@H](Cc1ccccc1)C(=O)N[C@@H](CCCNC(=N)N)C(=O)N[C@@H](C(C)C)C(=O)N2 [TPII, tachyplesin II] (HELM PEPTIDE1{R.W.C.F.R.V.C.Y.R.G.I.C.Y.R.K.C.R.[am]}$PEPTIDE1,PEPTIDE1,3:R3-16:R3|PEPTIDE1,PEPTIDE1,7:R3-12:R3$$$V2.0; N-terminus and C-terminus assumed; bridges inferred)
Fold change in minimum inhibitory concentration (MIC) ([1]; AMP-adapted line BAC5_3): 1
Relative MIC (MICevolved / MICcontrol) ([1]; AMP-adapted line BAC5_3): 1
Fold change in minimum inhibitory concentration (MIC) ([1]; AMP-adapted line BAC5_5): 1
Relative MIC (MICevolved / MICcontrol) ([1]; AMP-adapted line BAC5_5): 1
Fold change in minimum inhibitory concentration (MIC) ([1]; AMP-adapted line BAC5_7): 1.1
Relative MIC (MICevolved / MICcontrol) ([1]; AMP-adapted line BAC5_7): 1.1
Fold change in minimum inhibitory concentration (MIC) ([1]; AMP-adapted line BAC5_10): 1.1
Relative MIC (MICevolved / MICcontrol) ([1]; AMP-adapted line BAC5_10): 1.1
Fold change in minimum inhibitory concentration (MIC) ([1]; AMP-adapted line CAP18_2): 1.1
Relative MIC (MICevolved / MICcontrol) ([1]; AMP-adapted line CAP18_2): 1.1
Fold change in minimum inhibitory concentration (MIC) ([1]; AMP-adapted line CAP18_5): 1
Relative MIC (MICevolved / MICcontrol) ([1]; AMP-adapted line CAP18_5): 1
Fold change in minimum inhibitory concentration (MIC) ([1]; AMP-adapted line CAP18_6): 1
Relative MIC (MICevolved / MICcontrol) ([1]; AMP-adapted line CAP18_6): 1
Fold change in minimum inhibitory concentration (MIC) ([1]; AMP-adapted line CAP18_8): 1.1
Relative MIC (MICevolved / MICcontrol) ([1]; AMP-adapted line CAP18_8): 1.1
Fold change in minimum inhibitory concentration (MIC) ([1]; AMP-adapted line CAP18_10): 1
Relative MIC (MICevolved / MICcontrol) ([1]; AMP-adapted line CAP18_10): 1
Fold change in minimum inhibitory concentration (MIC) ([1]; AMP-adapted line HBD3_3): 1.2
Relative MIC (MICevolved / MICcontrol) ([1]; AMP-adapted line HBD3_3): 1.2
Fold change in minimum inhibitory concentration (MIC) ([1]; AMP-adapted line HBD3_6): 1.2
Relative MIC (MICevolved / MICcontrol) ([1]; AMP-adapted line HBD3_6): 1.2
Fold change in minimum inhibitory concentration (MIC) ([1]; AMP-adapted line HBD3_8): 1.2
Relative MIC (MICevolved / MICcontrol) ([1]; AMP-adapted line HBD3_8): 1.2
Fold change in minimum inhibitory concentration (MIC) ([1]; AMP-adapted line HBD3_10): 1.2
Relative MIC (MICevolved / MICcontrol) ([1]; AMP-adapted line HBD3_10): 1.2
Fold change in minimum inhibitory concentration (MIC) ([1]; AMP-adapted line LL37_1): 1.1
Relative MIC (MICevolved / MICcontrol) ([1]; AMP-adapted line LL37_1): 1.1
Fold change in minimum inhibitory concentration (MIC) ([1]; AMP-adapted line LL37_3): 1.1
Relative MIC (MICevolved / MICcontrol) ([1]; AMP-adapted line LL37_3): 1.1
Fold change in minimum inhibitory concentration (MIC) ([1]; AMP-adapted line LL37_6): 1
Relative MIC (MICevolved / MICcontrol) ([1]; AMP-adapted line LL37_6): 1
Fold change in minimum inhibitory concentration (MIC) ([1]; AMP-adapted line LL37_7): 1
Relative MIC (MICevolved / MICcontrol) ([1]; AMP-adapted line LL37_7): 1
Fold change in minimum inhibitory concentration (MIC) ([1]; AMP-adapted line LL37_10): 1
Relative MIC (MICevolved / MICcontrol) ([1]; AMP-adapted line LL37_10): 1
Fold change in minimum inhibitory concentration (MIC) ([1]; AMP-adapted line PEX_1): 1.1
Relative MIC (MICevolved / MICcontrol) ([1]; AMP-adapted line PEX_1): 1.1
Fold change in minimum inhibitory concentration (MIC) ([1]; AMP-adapted line PEX_4): 1.2
Relative MIC (MICevolved / MICcontrol) ([1]; AMP-adapted line PEX_4): 1.2
Fold change in minimum inhibitory concentration (MIC) ([1]; AMP-adapted line PEX_5): 1.1
Relative MIC (MICevolved / MICcontrol) ([1]; AMP-adapted line PEX_5): 1.1
Fold change in minimum inhibitory concentration (MIC) ([1]; AMP-adapted line PEX_6): 1
Relative MIC (MICevolved / MICcontrol) ([1]; AMP-adapted line PEX_6): 1
Fold change in minimum inhibitory concentration (MIC) ([1]; AMP-adapted line PEX_7): 1
Relative MIC (MICevolved / MICcontrol) ([1]; AMP-adapted line PEX_7): 1
Fold change in minimum inhibitory concentration (MIC) ([1]; AMP-adapted line PR39_1): 1
Relative MIC (MICevolved / MICcontrol) ([1]; AMP-adapted line PR39_1): 1
Fold change in minimum inhibitory concentration (MIC) ([1]; AMP-adapted line PR39_2): 0.9
Relative MIC (MICevolved / MICcontrol) ([1]; AMP-adapted line PR39_2): 0.9
Fold change in minimum inhibitory concentration (MIC) ([1]; AMP-adapted line PR39_5): 0.9
Relative MIC (MICevolved / MICcontrol) ([1]; AMP-adapted line PR39_5): 0.9
Fold change in minimum inhibitory concentration (MIC) ([1]; AMP-adapted line PR39_7): 0.9
Relative MIC (MICevolved / MICcontrol) ([1]; AMP-adapted line PR39_7): 0.9
Fold change in minimum inhibitory concentration (MIC) ([1]; AMP-adapted line PR39_10): 0.9
Relative MIC (MICevolved / MICcontrol) ([1]; AMP-adapted line PR39_10): 0.9
Fold change in minimum inhibitory concentration (MIC) ([1]; AMP-adapted line PROA_2): 1.1
Relative MIC (MICevolved / MICcontrol) ([1]; AMP-adapted line PROA_2): 1.1
Fold change in minimum inhibitory concentration (MIC) ([1]; AMP-adapted line PROA_3): 0.8
Relative MIC (MICevolved / MICcontrol) ([1]; AMP-adapted line PROA_3): 0.8
Fold change in minimum inhibitory concentration (MIC) ([1]; AMP-adapted line PROA_7): 1
Relative MIC (MICevolved / MICcontrol) ([1]; AMP-adapted line PROA_7): 1
Fold change in minimum inhibitory concentration (MIC) ([1]; AMP-adapted line PROA_8): 1
Relative MIC (MICevolved / MICcontrol) ([1]; AMP-adapted line PROA_8): 1
Fold change in minimum inhibitory concentration (MIC) ([1]; AMP-adapted line PROA_9): 1.1
Relative MIC (MICevolved / MICcontrol) ([1]; AMP-adapted line PROA_9): 1.1
Fold change in minimum inhibitory concentration (MIC) ([1]; AMP-adapted line PXB_2): 1.1
Relative MIC (MICevolved / MICcontrol) ([1]; AMP-adapted line PXB_2): 1.1
Fold change in minimum inhibitory concentration (MIC) ([1]; AMP-adapted line PXB_5): 1
Relative MIC (MICevolved / MICcontrol) ([1]; AMP-adapted line PXB_5): 1
Fold change in minimum inhibitory concentration (MIC) ([1]; AMP-adapted line PXB_6): 1.1
Relative MIC (MICevolved / MICcontrol) ([1]; AMP-adapted line PXB_6): 1.1
Fold change in minimum inhibitory concentration (MIC) ([1]; AMP-adapted line PXB_8): 1
Relative MIC (MICevolved / MICcontrol) ([1]; AMP-adapted line PXB_8): 1
Fold change in minimum inhibitory concentration (MIC) ([1]; AMP-adapted line PXB_10): 1.1
Relative MIC (MICevolved / MICcontrol) ([1]; AMP-adapted line PXB_10): 1.1
cross-resistance of the 38 AMP-resistant lines to the AMP (in words) ([1]; cross-resistance = minimum of twofold increase in resistance level): none of the 38 AMP-resistant lines displayed cross-resistance; also recorded: no cross-resistance

SWLSKTAKKLENSAKKRISEGIAIAIQGGPR [CP1, Cecropin P1]
MIC [2]: 1.2 µM
